Test results reported in patent US5650395A, “Treatment of pulmonary hypertension” (priority 1995, dated 1997).
Blank lines part the entries; values can stand above or below the molecule they belong to. Where a SMILES comes first, the peptide text is derived from it. Where no end group is shown, it is not given here. [ ]: non-standard residue; d: D form. dPhe(F5) = N[C@H](Cc1c(F)c(F)c(F)c(F)c1F)C(=O)O

Key:
GRP receptor [1] = biological target: T1, GRP receptor (Rattus norvegicus, UniProt P52500); test: Calcium mobilization assay in AR42J cells (Fura-2AM); format: cell-based; settings: for increase of intracellular calcium concentration: peptide alone at 10 nM, AR42J cells
T1 construct: endogenous in cells; host or cells: Rat AR42J cells
T1 sequence (P52500 whole entry): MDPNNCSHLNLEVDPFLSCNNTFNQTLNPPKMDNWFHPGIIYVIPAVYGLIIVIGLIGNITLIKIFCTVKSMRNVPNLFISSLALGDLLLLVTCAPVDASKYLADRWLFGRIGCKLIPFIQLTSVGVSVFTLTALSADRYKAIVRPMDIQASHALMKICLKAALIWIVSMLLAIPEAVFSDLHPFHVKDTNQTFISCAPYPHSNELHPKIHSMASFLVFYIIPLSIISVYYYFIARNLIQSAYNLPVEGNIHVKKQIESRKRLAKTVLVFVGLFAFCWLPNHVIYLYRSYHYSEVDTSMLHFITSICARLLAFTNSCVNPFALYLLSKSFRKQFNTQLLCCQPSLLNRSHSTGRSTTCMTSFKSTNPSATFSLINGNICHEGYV
Description: A working example follows:
Rat AR42J cells were cultured in DMEM medium containing 10% fetal bovine serum (Sigma, St. Louis, Mo.) in an atmosphere of 5% CO2 and 95% air at 37° C. After 5 days of culture, the cells were harvested by incubating in a 0.3% EDTA/phosphate buffered saline solution (Sigma, St. Louis, Mo.) (25° C.) and washed twice by centrifugation. The washed cells were resuspended in Hank's-buffered saline solution (HBSS) (Sigma, St. Louis, Mo.) for loading of the fluorescent Ca^2+ indicator Fura-2AM (Molecular Probes, Eugene, Oreg.). Cell suspensions of approximately 10^6 cells/ml were incubated with 2 μM Fura-2AM for 30 min at 25° C. Unloaded Fura-2AM was removed by centrifugation (twice) in HBSS, and the final cell suspensions were transferred to a spectrofluorometer (Hitachi F-2000, Tokyo, Japan) equipped with a magnetic stirring mechanism and a temperature-regulated cuvette holder. After equilibration to 37° C., a test peptide or a known GRP […] was added for measurement of Ca^2+ mobilization. The excitation and emission wavelengths were 340 and 510 nm, respectively.

GRP receptor [2] = biological target: T1, GRP receptor; test: GRP receptor binding assay ([125I-Tyr4]bombesin, AR42J cell membranes); settings: 30 min, 4° C., read-out: IC50 (concentration required to inhibit 50% of specific binding of [125I-Tyr4]bombesin)
Description: Membranes for the GRP receptor binding assay were obtained by homogenizing cultured AR42J cells (ATCC No. CRL-1492; American Type Culture Collection, Rockville, Md.) using a Polytron homogenizer (Brinkman Instruments, Westchester, N.Y.) at a setting of 6 for 15 sec. in an ice-cold 50 mM Tris-HCl buffer (Buffer A; Sigma, St. Louis, Mo.). See Singh, et al., 258 Am. J. Physiol. […] (1990). The homogenate was centrifuged twice at 39,000×g (10 min.) with an intermediate resuspension in fresh Buffer A. The final pellets were resuspended in Buffer A containing 0.1 mg/ml bacitracin and 0.1% bovine serum albumin (Buffer B) and held on ice for the receptor binding assay. Both bacitracin and bovine serum albumin were purchased from Sigma, St. Louis, Mo. Aliquots (0.4 ml) of the cell suspension were incubated with 0.05 ml of [^[…] ] bombesin (~2200 Ci/mmol; New England Nuclear, Boston, Mass.) in Buffer B and 0.05 ml of the test peptide (e.g., BIM-26226) at various concentrations (e.g., 0M to 10^-6 M) in Buffer B. […] Louis, Mo.). The filters were then washed three times with 5 ml aliquots of ice-cold Buffer A. Specific binding was defined as the total [^[…] ]bombesin bound in the presence of the test peptide minus that bound in the presence of 1 μM unlabeled GRP. […] BIM-26226, thus, has a high affinity for the GRP receptor. In other words, it is a GRP ligand.

[3] = tested on: patient with pulmonary hypertension; test: Infusion in a patient with pulmonary hypertension secondary to liver disease (Swan-Ganz catheterization); format: in vivo, human
Text: BIM-26226, a bombesin antagonist, was further administered to a patient to test its efficacy in lowering the pulmonary systolic or diastolic pressure.
The patient, complained of increasing shortness of breath under moderate exertion. […] A clinical diagnosis of pulmonary hypertension, secondary to liver disease, was made.
An 8 G french introducer (Arrow, Reading, Pa.) was inserted into the right internal jugular vein of the patient. A 7 G french triple lumen-balloon inflation lumen Swan-Ganz line (Abbot, N. Chicago, Ill.) was inserted through the introducer. The catheter was first floated through the right atrium and ventricle into the pulmonary artery, and was then connected to a Hewlett Packard monitor (Model 66s, M1166A) using modules M1006A, M1020A, 1029A, 1008A, and M1166A. Measurements of central venous pressure, pulmonary artery pressure, mean pulmonary pressure, cardiac index, cardiac output, and pulmonary vascular resistance were analyzed directly. A 20 G arterial line was inserted into the left radial artery (Arrow, Reading, Pa.) for measurement of systemic blood pressure and blood gas partial pressure estimations.
The study was conducted in two phases. The placebo phase, which lasted 24 hours, consisted of an infusion of normal saline (0.9% NaCl) at a constant rate of 50 ml/hr. The active phase consisted of an infusion of BIM-26226 in increasing concentrations. BIM-26226 was supplied as lyophilized powder. BIM-26226 was reconstituted in water, and then diluted in normal saline initially to give an infusion concentration of 5 μg/kg/hr. The concentration was increased every four hours to a maximum of 200 mcg/kg/hr. BIM-26226 was administered through the jugular line at a constant infusion rate of 50 ml/hr. Observations as detailed above were recorded at least hourly, though more often if indicated. In addition, blood samples were taken every four hours for biochemical profile, hematological screening, and both peripheral and central GRP levels. The GRP level samples were collected on ice, centrifuged, and snap-frozen. Analysis on the GRP levels was performed using an established radioimmunoassay.
FIG. 1 summarizes the study. The pulmonary systolic and diastolic pressures are compared between both the infusion of the saline placebo (Plac sys and Plac dias) and BIM-26226 (BIM sys and BIM dias). The doses of BIM-26226 administered and the administration scheme are shown at the top of FIG. 1, e.g., 5 μg/kg/hr four hours initially.

[4] = tested on: isolated pulmonary arteries; settings: cited from earlier work
pulmonary haemodynamics = settings: wide range of experimental conditions; cited from earlier work

increase of intracellular calcium concentration (GRP receptor [1]): no effect
increase of intracellular calcium concentration by bombesin (10 nM) after pretreatment with antagonist (GRP receptor [1]; pretreated with BIM-26226 (10 nM)): 300 nM
reduction of bombesin-induced calcium increase versus bombesin alone (GRP receptor [1]; pretreated with BIM-26226 (10 nM), bombesin 10 nM): 205 nM
IC50 (GRP receptor [2]): 0.5 nM
blood biochemistry ([3]; upon infusion): no changes
cardiac index ([3]; upon infusion): no changes
cardiac output ([3]; upon infusion): no changes
peripheral vascular resistance ([3]; upon infusion): no changes
right atrial pressure ([3]; upon infusion): no changes
Molecule: COC(=O)[C@H](CC(C)C)NC(=O)[C@H](Cc1c[nH]cn1)NC(=O)[C@@H](C)NC(=O)[C@@H](NC(=O)[C@H](C)NC(=O)[C@H](Cc1c[nH]c2ccccc12)NC(=O)[C@H](CCC(N)=O)NC(=O)[C@H](N)Cc1c(F)c(F)c(F)c(F)c1F)C(C)C [BIM-26226, H-D-F5 -Phe-Gln-TrP-Ala-Val-D-Ala-His-Leu-O-CH3] (H-[dPhe(F5)]QWAV[dA]HL-OMe)
adverse events ([3]; active phase of infusion): Other than a mild urticarial response during the early active phase, the patient had no adverse events
pulmonary diastolic pressure ([3]; infusion rate of 200 μg/kg/hr, from 35 mm Hg): 42 mm Hg
pulmonary systolic pressure ([3]; infusion rate of 200 μg/kg/hr, from 90 mm Hg): 55 mm Hg
infusion rate at which pulmonary systolic pressure started to decrease ([3]; intravenous infusion, increasing doses every four hours): 25 µg/kg/h
pulmonary systolic pressure upon rechallenge ([3]; rechallenge after discontinuation): again dramatically decreased
systemic blood pressure ([3]; upon infusion): no changes
period over which pulmonary pressure rose upon discontinuation of drug administration ([3]; within two half-lives of the drug): 15 min

Molecule: CSCC[C@H](NC(=O)[C@H](CC(C)C)NC(=O)[C@H](Cc1cnc[nH]1)NC(=O)CNC(=O)[C@@H](NC(=O)[C@H](C)NC(=O)[C@H](Cc1c[nH]c2ccccc12)NC(=O)[C@H](CCC(N)=O)NC(=O)[C@H](CC(N)=O)NC(=O)CNC(=O)[C@H](CC(C)C)NC(=O)[C@H](CCCN=C(N)N)NC(=O)[C@H](CCC(N)=O)NC(=O)[C@@H]1CCC(=O)N1)C(C)C)C(N)=O [Bombesin]
effect on isolated pulmonary arteries [4]: not to have an effect
increase of intracellular calcium concentration (GRP receptor [1]): 505 nM
in vivo pulmonary haemodynamic effect (pulmonary haemodynamics): neither bombesin nor GRP, under a wide range of experimental conditions, have any demonstrable in vivo pulmonary haemodynamic effect

Molecule: COc1ccc([C@@H]2Sc3ccccc3N(CCN(C)C)C(=O)[C@@H]2OC(C)=O)cc1 [diltiazem, reference compound]
effect on pulmonary pressure (therapeutic trial) ([3]; patient, before the BIM-26226 study): did not lower the pulmonary pressure

Molecule: GRP: 27-amino acid peptide first isolated from the porcine gut (APVSVGGGTVLAKMYPRGNHWAVGHLM; ends and bridges not checked; UniProt P63153 24-50, looked up)
in vivo pulmonary haemodynamic effect (pulmonary haemodynamics): neither bombesin nor GRP, under a wide range of experimental conditions, have any demonstrable in vivo pulmonary haemodynamic effect
